From patent US20030224024A1, “Compositions comprising cyclopentane derivatives and their use” (priority 2002, published 2003)

What was measured:
[1] = test system: isolated stratum corneum; assay: Keratolytic power, Test 1: counting corneocytes released from patches of isolated stratum corneum; assay type: cell-based; details: 1% by weight solution in PBS + 0.1% Triton X100, pH 7.4, 37° C., 24 hours
Method: (§1) The keratolytic power of a number of compounds of the disclosure was studied. This test comprises counting corneocytes released following incubation of patches of isolated stratum corneum in the presence of the test compounds.
(§2) Stratum corneum isolated by trypsin/heat from surgical plasties was used. A number of different stratum corneum samples were used. Discs of 4 mm in diameter were punched out and placed at the bottom of a 96-well plate.
A 1% by weight solution of the compound of Example 1, or (1R,2R)-3-oxo-2-(2Z)pentylcyclopentaneacetic acid (comparative), was prepared in a PBS buffer supplemented with 0.1% of Triton X100. The pH of the solution was adjusted to 7.4.
50 microlitres of test solution or of control solution (PBS buffer supplemented with 0.1% of Triton:X100) were added to each well. Incubation was carried out at 37° C. with stirring for 24 hours.
(§3) 10 microlitres of solution were then withdrawn and were placed in a Malassez cell. The liberated corneocytes were counted under the microscope.
The results obtained are as follows, expressed as the number of liberated corneocytes per microlitre, averaged over three tests. Corneocyte fragments were not counted.

[2] = test system: isolated stratum corneum; assay: Keratolytic power, Test 2: counting corneocytes released from patches of isolated stratum corneum; assay type: cell-based; details: 1% by weight solution in PBS + 0.1% Triton X100, pH 7.4, 37° C., 24 hours; for number of liberated corneocytes per microlitre, Sample 1 (3 tests): Test 2, Sample 1, average over three tests; for number of liberated corneocytes per microlitre, Sample 2 (3 tests): Test 2, Sample 2, average over three tests; for number of liberated corneocytes per microlitre, Average: Test 2, average of Samples 1 and 2
Method: as §1, §2
A 1% by weight solution of the compound of Example 1 or salicylic acid, was prepared in a PBS buffer supplemented with 0.1% of Triton X100. The pH of the solution was adjusted to 7.4.
50 microlitres of test solution or of control solution (PBS buffer supplemented with 0.1% of Triton X100) were added to each well. Incubation was carried out at 37° C. with stirring for 24 hours.
as §3
The results obtained are as follows, expressed as the number of liberated corneocytes per microlitre. Corneocyte fragments were not counted.

CC/C=C\C[C@H]1C(=O)CC[C@@H]1CC(=O)O [Comparative, (1R,2R)-3-oxo-2-(2Z)pentylcyclopentaneacetic acid]
number of liberated corneocytes per microlitre, Average (3 tests per sample, 3 different samples) [1]: 12 ± 4 liberated corneocytes per microlitre

CC/C=C\C[C@H]1C(=O)CC[C@@H]1CC(=O)O (racemic) [Example 1, (±)(1R,2R)-3-oxo-2-[(2Z)-2-pentenyl]cyclopentaneacetic acid]
number of liberated corneocytes per microlitre, Sample 1 (3 tests) [2]: 80 ± 4 liberated corneocytes per microlitre
number of liberated corneocytes per microlitre, Sample 2 (3 tests) [2]: 64 ± 11 liberated corneocytes per microlitre
number of liberated corneocytes per microlitre, Average [2]: 72 ± 7 liberated corneocytes per microlitre
number of liberated corneocytes per microlitre, Average (3 tests per sample, 3 different samples) [1]: 15 ± 5 liberated corneocytes per microlitre

O=C(O)c1ccccc1O [Salicylic acid, salicylic acid]
number of liberated corneocytes per microlitre, Sample 1 (3 tests) [2]: 33 ± 20 liberated corneocytes per microlitre
number of liberated corneocytes per microlitre, Sample 2 (3 tests) [2]: 21 ± 8 liberated corneocytes per microlitre
number of liberated corneocytes per microlitre, Average [2]: 27 ± 14 liberated corneocytes per microlitre
